Like-named read-outs stand apart in the source and are kept apart here.

One test relates to RPMI 8226 myeloma cells. Conditions: 5 μM pHLIP-Dexa, 2 hrs without FBS, viability after 22 hours.
Test [1] concerns MCP-1 (monocyte chemoattractant protein).
Experimental: CD-1 male mouse, 6 to 7 weeks and 32-38 grams from Charles River Labs were used in the study. […] Briefly, mice were allowed optimal inhalation and passive gravitational flow of LPS directly to the lungs. 50 μg (in 50 μl) LPS was instilled into the nares in five boluses of 10 μl each. […] For processing, a mammalian protease inhibitor cocktail (diluted 1:100 in PBS) was added to each lung sample. Lungs were homogenized by Beadbeater with 2 mm zirconia beads for 1.5 minutes. Homogenates were spun at 10K for 10 minutes at 4° C., and supernatants collected for analysis. Quantikine kit (R&D Systems) assays for JE/MCP-1 were performed as per kit protocols. For the lungs samples, MCP-1 content was expressed as pg/mg of protein. Protein measurements were performed by Pierce™ BCA Protein Assay Kit according to the protocol provided by a manufacturer.
For test [2], the system named is oxazolone-induced contact hypersensitivity. As to conditions: 24 hrs after oxazolone challenge; pHLIP-Dexa 4.6 mg/kg i.p. vs Dexa 0.46 mg/kg i.p. and 20 mg/kg orally.
Experimental: CD-1 male mouse, 8 to 10 weeks from Charles River Labs were used in the study. Contact hypersensitivity was induced by sensitization and challenge with oxazalone as follows: on day 1, mice are sensitized to oxazalone by application (50 μL; 3% in 100% ethanol) to the abdominal area (previously shaved) and to each footpad (5 μL). On day 6, mice were exposed to oxazalone (20 μL; 1% in 100% ethanol) by application to each side of right ear. Twenty-four hrs after challenge (day 7), dermatitis severity was measured using a visual scale: 0—no evidence of erythema or swelling; 1—mild swelling; 2—mild erythema and moderate selling; 3—erythema and severe swelling. Ear thickness was measured using a micrometer once, prior to sensitization on day 1 (baseline) and once, after dosing on day 7 of the study.

Experimental for RPMI 8226 myeloma cells: Myeloma cancer cells were loaded in the wells (30,000 cells/well) and incubated overnight. […] Cell viability was assessed after 22 hours using the colorimetric CellTiter 96 AQueous One Solution Cell Proliferation Assay by absorption measurement at 490 nm.

Consider pHLIP-(PEG4)-dexamethasone [pHLIP-Dexa], for which, in the test with RPMI 8226 myeloma cells, the “myeloma cancer cell viability, pHLIP-Dexa alone” value is recorded as “induced myeloma cancer cells death”. The “reduction of level of MCP-1 protein” value is given as “very effective in reducing level of MCP-1 protein” in test [1] (dose 4.6 mg/kg in PBS/5% DMSO, 30 minutes after LPS) and “less effective” in test [1] (high dose 11.4 mg/kg in PBS/5% DMSO). The “decrease of thickness of animal ear” value in test [2] is “as effective as high and low doses of Dexa”. In addition, in test [2], the “reduction of inflammation (dermatitis severity, scale 0 to 3)” value is “as effective as high and low doses of Dexa”.

Values taken from patent US20200323882A1, “PHLIP®-MEDIATED TARGETING OF CORTICOSTEROIDS TO DISEASED TISSUE” (priority 2019, published 2020).
